Assay results reported in publication PMC9207888, “Hydride Transfer Mechanism of Enzymatic Sugar Nucleotide C2 Epimerization Probed with a Loose-Fit CDP-Glucose Substrate” (ACS Catalysis, 2022).

Legend:
Type in all cases: binding
[1] = molecular target: T1, TaCPa2E (Thermodesulfatator atlanticus CDP-paratose 2-epimerase; C2 epimerase) (Thermodesulfatator atlanticus, UniProt Z9RN36Q305); assay: HPLC quantification of coenzyme released from denatured purified enzyme; conditions: resting enzyme without substrate, 60 °C, pH 7.5
T1 construct: C-terminal His-tag, pET21a, expressed in E. coli BL21(DE3); 39362 g/mol functional monomer; catalytic Tyr164; SDR superfamily
T1 sequence (Z9RN36Q305 1-340): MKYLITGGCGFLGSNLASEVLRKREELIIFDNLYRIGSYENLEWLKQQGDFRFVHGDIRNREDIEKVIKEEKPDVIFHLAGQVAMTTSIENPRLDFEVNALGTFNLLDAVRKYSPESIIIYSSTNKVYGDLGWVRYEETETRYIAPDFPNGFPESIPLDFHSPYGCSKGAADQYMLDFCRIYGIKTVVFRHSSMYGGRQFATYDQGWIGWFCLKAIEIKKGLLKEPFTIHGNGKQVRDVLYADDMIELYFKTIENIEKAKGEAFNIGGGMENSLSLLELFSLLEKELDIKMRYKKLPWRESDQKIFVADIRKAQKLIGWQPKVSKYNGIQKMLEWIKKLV
Source text: HPLC quantification of coenzyme released from denatured purified enzyme on TaCPa2E (Thermodesulfatator atlanticus CDP-paratose 2-epimerase; C2 epimerase) | the NADH content of the resting enzyme in the absence of the substrate

[2] = molecular target: T1, TaCPa2E (Thermodesulfatator atlanticus CDP-paratose 2-epimerase; C2 epimerase); assay: HPLC of coenzyme released from denatured purified enzyme; conditions: tightly bound, co-purified; extraction not quantitative
[3] = molecular target: T2, TaCPa2E (Thermodesulfatator atlanticus CDP-paratose 2-epimerase; C2 epimerase) (Thermodesulfatator atlanticus, UniProt Z9RN36Q305, Y164F); assay: co-purified coenzyme in isolated variant; conditions: tightly bound
T2 construct: C-terminal His-tag, pET21a, expressed in E. coli BL21(DE3); 39362 g/mol functional monomer; catalytic Tyr164; SDR superfamily

Row | portion of enzyme-NADH in resting enzyme [1] | Compound | HPLC of coenzyme released from denatured purified enzyme [2] | co-purified coenzyme in isolated variant [3]
1 | 4.15 ± 1.0% | NC(=O)C1=CN([C@@H]2O[C@H](COP(=O)(O)OP(=O)(O)OC[C@H]3O[C@@H](n4cnc5c(N)ncnc54)[C@H](O)[C@@H]3O)[C@@H](O)[C@H]2O)C=CC1 [NADH] |  | 
2 |  | NC(=O)c1ccc[n+]([C@@H]2O[C@H](COP(=O)(O)OP(=O)(O)OC[C@H]3O[C@@H](n4cnc5c(N)ncnc54)[C@H](O)[C@@H]3O)[C@@H](O)[C@H]2O)c1 [NAD^+] | enzyme-bound NAD^+ could not be extracted from TaCPa2E reliably | The purified variant contained tightly bound NAD^+
